Consider 14 molecules from PubChem BioAssay AID330 (DTP/NCI, 2004).

Where “and” joins values, the source holds several entries; their conditions need not be identical. Identical values can stand only once. Inconclusive results and toxic doses are left out.

This assay deals with P388 leukemia ip, CD2F1 mice, survival T/C. Description: NCI In Vivo Anticancer Drug Screen. Data for tumor model P388 Leukemia (intraperitoneal) in CD2F1 (CDF1) mice. The note with it: endpoint: median survival time, higher = longer survival. In short, it runs like this: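 Mice carrying the transplanted tumor received test compound or vehicle. Survival was recorded in each group, and the value is the treated-group measurement divided by that of the vehicle-treated control group.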

The mark [1] stands for this setting: dose: 50.0 mg/kg/injection, schedule: Q01DX005 (ip), vehicle: Klucel (hydroxypropylcellulose) (HPC).
Setting [2] is: dose: 100.0 mg/kg/injection, schedule: Q01DX005 (ip), vehicle: Klucel (hydroxypropylcellulose) (HPC).
[3] abbreviates: dose: 200.0 mg/kg/injection, schedule: Q01DX005 (ip), vehicle: Klucel (hydroxypropylcellulose) (HPC).
[4] abbreviates: dose: 100.0 mg/kg/injection, schedule: Q01DX009 (ip), vehicle: saline.
[5] abbreviates: dose: 200.0 mg/kg/injection, schedule: Q01DX009 (ip), vehicle: saline.

On to `CCCCCCCCCCCCCCCC(=O)OCC1OC(n2ccc(N)nc2=O)C(O)C1O` (configuration not stated), for which the T/C (dose: 0.29 mg/kg/injection, schedule: Q01DX009 (ip), vehicle: saline with Tween-80) is 104 % of control; the T/C (dose: 0.44 mg/kg/injection, schedule: Q01DX009 (ip), vehicle: saline with Tween-80) was 104 % of control; the T/C (dose: 0.66 mg/kg/injection, schedule: Q01DX009 (ip), vehicle: saline with Tween-80) is 122 % of control; the T/C (dose: 0.88 mg/kg/injection, schedule: Q01DX009 (ip), vehicle: saline with Tween-80) is 152 % of control; the T/C (dose: 1.32 mg/kg/injection, schedule: Q01DX009 (ip), vehicle: saline with Tween-80) was 166 % of control; the T/C (dose: 2.0 mg/kg/injection, schedule: Q01DX009 (ip), vehicle: saline with Tween-80) was 185 % of control. Moreover, the T/C was 200 % of control (dose: 3.0 mg/kg/injection, schedule: Q01DX009 (ip), vehicle: saline with Tween-80); 163 % of control (dose: 3.13 mg/kg/injection, schedule: Q04DX003 (ip), vehicle: saline with Tween-80); 181 % of control and 195 % of control (dose: 6.25 mg/kg/injection, schedule: Q04DX003 (ip), vehicle: saline with Tween-80); 204 % of control (dose: 12.5 mg/kg/injection, schedule: Q04DX003 (ip), vehicle: saline sonified); 218 % of control and 222 % of control (dose: 12.5 mg/kg/injection, schedule: Q04DX003 (ip), vehicle: saline with Tween-80); 221 % of control and 345 % of control (dose: 15.0 mg/kg/injection, schedule: Q01DX009 (ip), vehicle: saline with Tween-80). For the same molecule, the T/C was 154 % of control (dose: 20.0 mg/kg/injection, schedule: Q01DX001 (ip), vehicle: saline with Tween-80); 228 % of control and 538 % of control and 548 % of control (dose: 20.0 mg/kg/injection, schedule: Q01DX009 (ip), vehicle: saline with Tween-80); 344 % of control (dose: 24.0 mg/kg/injection, schedule: Q01DX009 (ip), vehicle: saline with Tween-80); 170 % of control and 539 % of control (dose: 25.0 mg/kg/injection, schedule: Q01DX009 (ip), vehicle: saline with Tween-80); 250 % of control (dose: 25.0 mg/kg/injection, schedule: Q04DX003 (ip), vehicle: saline sonified); 254 % of control (dose: 25.0 mg/kg/injection, schedule: Q04DX003 (ip), vehicle: saline with Tween-80). Besides, the T/C (dose: 31.75 mg/kg/injection, schedule: Q04DX002 (ip), vehicle: Klucel (hydroxypropylcellulose) (HPC)) is 250 % of control and 256 % of control; the T/C (dose: 32.0 mg/kg/injection, schedule: Q04DX003 (ip), vehicle: saline with Tween-80) is 194 % of control and 264 % of control; the T/C (dose: 37.5 mg/kg/injection, schedule: Q01DX001 (ip), vehicle: saline with Tween-80) is 181 % of control; the T/C (dose: 40.0 mg/kg/injection, schedule: Q01DX001 (ip), vehicle: saline with Tween-80) was 204 % of control; the T/C (dose: 48.0 mg/kg/injection, schedule: Q04DX003 (ip), vehicle: saline with Tween-80) was 216 % of control and 350 % of control; the T/C (dose: 50.0 mg/kg/injection, schedule: Q01DX001 (ip), vehicle: Klucel (hydroxypropylcellulose) (HPC)) was 155 % of control. In addition, the T/C was 250 % of control (dose: 50.0 mg/kg/injection, schedule: Q04DX003 (ip), vehicle: saline sonified); 536 % of control (dose: 60.0 mg/kg/injection, schedule: Q03DX003 (ip), vehicle: saline with Tween-80); 263 % of control and 275 % of control (dose: 62.5 mg/kg/injection, schedule: Q04DX002 (ip), vehicle: Klucel (hydroxypropylcellulose) (HPC)); 536 % of control (dose: 70.0 mg/kg/injection, schedule: Q03DX003 (ip), vehicle: saline with Tween-80); 213 % of control and 511 % of control (dose: 72.0 mg/kg/injection, schedule: Q04DX003 (ip), vehicle: saline with Tween-80); 181 % of control (dose: 75.0 mg/kg/injection, schedule: Q01DX001 (ip), vehicle: saline with Tween-80). The T/C by setting is: (dose: 80.0 mg/kg/injection, schedule: Q03DX003 (ip), vehicle: saline with Tween-80) 459 % of control; (dose: 90.0 mg/kg/injection, schedule: Q03DX003 (ip), vehicle: saline with Tween-80) 378 % of control; (dose: 125.0 mg/kg/injection, schedule: Q04DX002 (ip), vehicle: Klucel (hydroxypropylcellulose) (HPC)) 263 % of control and 275 % of control.

With `O=C(O)c1cc(Nc2ccnc3cc(Cl)ccc23)ccc1O`, the T/C runs as follows: (dose: 100.0 mg/kg/injection, schedule: Q04DX002 (ip), vehicle: saline with Tween-80) 98 % of control; (dose: 200.0 mg/kg/injection, schedule: Q04DX002 (ip), vehicle: saline with Tween-80) 97 % of control; (dose: 400.0 mg/kg/injection, schedule: Q04DX002 (ip), vehicle: saline with Tween-80) 98 % of control.

Turning to `CCCCCCC(=O)/C=C/c1ccc(C)cc1`, the T/C runs as follows: under setting [1], 100 % of control; under setting [2], 100 % of control; under setting [3], 94 % of control.

Turning to `COc1cc2c(cc1NC(=O)N(CCCl)N=O)-c1ccccc1C2`, the T/C (dose: 350.0 mg/kg/injection, schedule: Q04DX003 (ip), vehicle: Klucel (hydroxypropylcellulose) (HPC)) was 163 % of control.

For the molecule `COc1cc(CCc2cc(OC)c(OC)c(OC)c2)cc(OC)c1OC`, the T/C (dose: 31.25 mg/kg/injection, schedule: Q01DX009 (ip), vehicle: saline + Tween-80 + alcohol) was 98 % of control; the T/C (dose: 62.5 mg/kg/injection, schedule: Q01DX009 (ip), vehicle: saline + Tween-80 + alcohol) was 91 % of control; the T/C (dose: 125.0 mg/kg/injection, schedule: Q01DX009 (ip), vehicle: saline + Tween-80 + alcohol) was 102 % of control; the T/C (dose: 250.0 mg/kg/injection, schedule: Q01DX009 (ip), vehicle: saline + Tween-80 + alcohol) was 87 % of control.

On to `CN1CC(O)c2cc(N=NC(N)=O)c(O)cc21` (configuration not stated), for which the T/C reads like this: under setting [1], 96 % of control; under setting [2], 91 % of control; under setting [3], 108 % of control.

For `COC(=O)CC1(C(=O)OC)c2ccc3ccccc3c2N(C#N)C1CCCBr` (configuration not stated), the T/C reads like this: (dose: 100.0 mg/kg/injection, schedule: Q01DX001 (ip), vehicle: saline) 109 % of control; (dose: 200.0 mg/kg/injection, schedule: Q01DX001 (ip), vehicle: saline) 107 % of control; (dose: 400.0 mg/kg/injection, schedule: Q01DX001 (ip), vehicle: saline) 100 % of control.

As for `Cc1cc(NS(=O)(=O)c2ccc(NC(=O)NCCCl)cc2)no1`, the T/C runs as follows: (dose: 30.0 mg/kg/injection, schedule: Q01DX005 (ip), vehicle: Klucel (hydroxypropylcellulose) (HPC)) 99 % of control; (dose: 60.0 mg/kg/injection, schedule: Q01DX005 (ip), vehicle: Klucel (hydroxypropylcellulose) (HPC)) 98 % of control; (dose: 120.0 mg/kg/injection, schedule: Q01DX005 (ip), vehicle: Klucel (hydroxypropylcellulose) (HPC)) 100 % of control; (dose: 240.0 mg/kg/injection, schedule: Q01DX005 (ip), vehicle: Klucel (hydroxypropylcellulose) (HPC)) 100 % of control.

As for `COC(=O)N1C=CC2ON=C(OC)C2C1` (configuration not stated), the T/C (dose: 60.0 mg/kg/injection, schedule: Q01DX005 (ip), vehicle: saline with Tween-80) was 95 % of control; the T/C (dose: 120.0 mg/kg/injection, schedule: Q01DX005 (ip), vehicle: saline with Tween-80) is 100 % of control; the T/C (dose: 240.0 mg/kg/injection, schedule: Q01DX005 (ip), vehicle: saline with Tween-80) is 94 % of control.

Take `Cc1ncn[nH]1`: the T/C by setting is: under setting [4], 103 % of control; under setting [5], 106 % of control; (dose: 400.0 mg/kg/injection, schedule: Q01DX009 (ip), vehicle: saline) 100 % of control.

On to `OCCN(CCO)Cc1nc2ccc(Cl)cc2[nH]1`, for which the T/C is, setting by setting: (dose: 50.0 mg/kg/injection, schedule: Q01DX005 (ip), vehicle: saline) 98 % of control; (dose: 100.0 mg/kg/injection, schedule: Q01DX005 (ip), vehicle: saline) 91 % of control; (dose: 200.0 mg/kg/injection, schedule: Q01DX005 (ip), vehicle: saline) 95 % of control.

In the case of `O=C1Nc2ccc3cn[nH]c3c2C1=O`, the T/C is 98 % of control (dose: 50.0 mg/kg/injection, schedule: Q01DX005 (ip), vehicle: saline with Tween-80); 101 % of control (dose: 100.0 mg/kg/injection, schedule: Q01DX005 (ip), vehicle: saline with Tween-80); 105 % of control (dose: 200.0 mg/kg/injection, schedule: Q01DX005 (ip), vehicle: saline with Tween-80).

Regarding `C=CC(C)(C)C1=CC(=O)C(OC)=CC1=O`, the T/C is, setting by setting: under setting [1], 100 % of control; under setting [2], 103 % of control; under setting [3], 100 % of control.

For the molecule `O=c1[nH]c(-c2ccccc2)nc2nc3ccc([N+](=O)[O-])cc3[n+]([O-])c12`, the T/C is 93 % of control (dose: 50.0 mg/kg/injection, schedule: Q01DX009 (ip), vehicle: saline); 92 % of control under setting [4]; 97 % of control under setting [5].
